Reference: US10206394B2, “Herbicidal compounds” (Syngenta Participations AG, priority 2014, dated 2019)
Read-outs that look alike come from different tables or passages of the source.

Experiments:
Test in all cases: Glasshouse assay for herbicidal activity (pre- and post-emergence), percentage phytotoxicity
Type in all cases: in vivo
[1] = test system: Alopecurus myosuroides (ALOMY); details: Alopecurus myosuroides, 250 g/ha, visual assessment (100%=total damage, 0%=no damage)
Procedure, shortened: (§1)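 Pot-grown, standard soil. PRE: spray 1 d post-sowing; POST: ~12 d. Glasshouse 24/18 °C (warm spp.) / 20/16 °C (cool spp.), 16 h light, 65% RH, watered 2×/day. Visual % damage, 20 DAA PRE, 15 DAA POST.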

Avena fatua (AVEFA) = details: Avena fatua, 250 g/ha, visual assessment (100%=total damage, 0%=no damage)
Procedure, shortened: as §1

[2] = test system: Echinochloa crus-galli (ECHCG); details: Echinochloa crus-galli, 250 g/ha, visual assessment (100%=total damage, 0%=no damage)
Procedure, shortened: as §1

Lolium perenne (LOLPE) = details: Lolium perenne, 250 g/ha, visual assessment (100%=total damage, 0%=no damage)
Procedure, shortened: as §1

[3] = post-emergence, 360 h, post-emergence, 15 DAA, read-out: Post-emergence herbicidal activity (percentage phytotoxicity) ALOMY POST
[4] = pre-emergence, 480 h, pre-emergence, 20 DAA, read-out: Pre-emergence herbicidal activity (percentage phytotoxicity) ALOMY PRE
[5] = post-emergence, 360 h, post-emergence, 15 DAA, read-out: Post-emergence herbicidal activity (percentage phytotoxicity) AVEFA POST
[6] = pre-emergence, 480 h, pre-emergence, 20 DAA, read-out: Pre-emergence herbicidal activity (percentage phytotoxicity) AVEFA PRE
[7] = post-emergence, 360 h, post-emergence, 15 DAA, read-out: Post-emergence herbicidal activity (percentage phytotoxicity) ECHCG POST
[8] = pre-emergence, 480 h, pre-emergence, 20 DAA, read-out: Pre-emergence herbicidal activity (percentage phytotoxicity) ECHCG PRE
[9] = post-emergence, 360 h, post-emergence, 15 DAA, read-out: Post-emergence herbicidal activity (percentage phytotoxicity) LOLPE POST
[10] = pre-emergence, 480 h, pre-emergence, 20 DAA, read-out: Pre-emergence herbicidal activity (percentage phytotoxicity) LOLPE PRE

Compound	pest or weed control at 250 g/ha [1, 3]	pest or weed control at 250 g/ha [1, 4]	pest or weed control at 250 g/ha (Avena fatua (AVEFA); [5])	pest or weed control at 250 g/ha (Avena fatua (AVEFA); [6])	pest or weed control at 250 g/ha [2, 7]	pest or weed control at 250 g/ha [2, 8]	pest or weed control at 250 g/ha (Lolium perenne (LOLPE); [9])	pest or weed control at 250 g/ha (Lolium perenne (LOLPE); [10])
Cc1cc(-c2ncc(C#N)cc2Cl)cc(C)c1C1C(=O)CC(CC(=O)NC(C)(C)C)C1=O (stereo not drawn) [Compound B83]	70%	80%	80%	30%	90%	90%	80%	80%
Cc1cc(-c2ncccc2F)cc(C)c1C1C(=O)CC(CC(=O)NC(C)(C)C)C1=O (stereo not drawn) [Compound B84]	100%	90%	100%	80%	100%	100%	100%	100%
Cc1cc(-c2ncc(C#N)cc2F)cc(C)c1C1C(=O)CC(CC(=O)NC(C)(C)C)C1=O (stereo not drawn) [Compound B85]	70%	70%	50%	10%	100%	20%	80%	70%
C#Cc1cccc(CNC(=O)CC2CC(=O)C(c3c(C)cc(C)cc3C)C2=O)c1 (stereo not drawn) [Compound B86]	70%	70%	100%	60%	90%	80%	100%	90%
Cc1cc(-c2ncc(F)cc2C#N)cc(C)c1C1C(=O)CC(CC(=O)NC(C)(C)C)C1=O (stereo not drawn) [Compound B87]	70%	40%	30%	10%	80%	20%	80%	70%
Cc1cc(-c2ncc(F)cc2F)cc(C)c1C1C(=O)CC(CC(=O)NCc2cccc(C(F)(F)F)c2)C1=O (stereo not drawn) [Compound B88]	100%	90%	100%	70%	100%	90%	100%	90%
Cc1cc(-c2ncc(F)cc2F)cc(C)c1C1C(=O)CC(CC(=O)NCc2ccc(C(F)(F)F)cc2)C1=O (stereo not drawn) [Compound B89]	100%	90%	100%	60%	100%	100%	100%	90%
Cc1cc(-c2ncc(F)cc2F)cc(C)c1C1C(=O)CC(CC(=O)NCc2cccc(Br)c2)C1=O (stereo not drawn) [Compound B90]	100%	90%	100%	70%	100%	100%	100%	100%
COc1ccc(CNC(=O)CC2CC(=O)C(c3c(C)cc(-c4ncc(F)cc4F)cc3C)C2=O)cc1 (stereo not drawn) [Compound B91]	100%	80%	100%	70%	100%	80%	100%	90%
